Test results from ChEMBL document CHEMBL1201862, “PubChem BioAssay data set” (2004).
Activity calls are given as the source filed them.

Tests used:
Assay type in all cases: functional
[1] = target: G-protein coupled receptor 55 (Homo sapiens, UniProt Q9Y2T6); assay: GPR55 agonists via beta-arrestin recruitment, primary screen, imaging, U2OS cells, beta-arrestin-GFP redistribution (AID 1961)
[2] = target: Potassium voltage-gated channel subfamily KQT member 2 (Rattus norvegicus, UniProt O88943); assay: KCNQ2 potassium channel inhibitors, dose response, cell-based, automated electrophysiology, set II, rat KCNQ2 (AID 588637)
Potassium voltage-gated channel subfamily KQT member 2, sequence (O88943 whole entry): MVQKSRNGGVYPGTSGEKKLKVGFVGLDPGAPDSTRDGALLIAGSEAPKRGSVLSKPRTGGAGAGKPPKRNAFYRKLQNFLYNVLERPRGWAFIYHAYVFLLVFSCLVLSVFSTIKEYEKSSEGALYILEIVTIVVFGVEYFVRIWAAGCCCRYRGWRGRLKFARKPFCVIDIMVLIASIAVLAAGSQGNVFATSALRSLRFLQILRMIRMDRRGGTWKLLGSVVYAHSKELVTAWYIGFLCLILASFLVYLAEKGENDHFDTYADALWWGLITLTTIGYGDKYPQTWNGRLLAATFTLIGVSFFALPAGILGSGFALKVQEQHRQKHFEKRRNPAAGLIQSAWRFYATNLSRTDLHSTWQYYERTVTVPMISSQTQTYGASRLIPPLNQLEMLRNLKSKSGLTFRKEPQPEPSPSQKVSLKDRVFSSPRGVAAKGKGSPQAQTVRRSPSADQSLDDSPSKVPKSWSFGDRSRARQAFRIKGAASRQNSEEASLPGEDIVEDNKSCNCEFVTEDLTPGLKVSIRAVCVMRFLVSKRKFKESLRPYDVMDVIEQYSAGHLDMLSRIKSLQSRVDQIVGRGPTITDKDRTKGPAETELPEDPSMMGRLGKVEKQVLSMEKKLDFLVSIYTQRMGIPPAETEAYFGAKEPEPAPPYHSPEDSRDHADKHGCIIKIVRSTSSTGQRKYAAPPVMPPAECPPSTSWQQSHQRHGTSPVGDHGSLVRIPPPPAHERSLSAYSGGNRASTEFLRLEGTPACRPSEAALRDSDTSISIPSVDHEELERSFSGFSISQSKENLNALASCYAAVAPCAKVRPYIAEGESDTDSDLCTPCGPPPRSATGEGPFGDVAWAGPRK

Caspase-3 = target: T1, Caspase-3 (Homo sapiens, UniProt P42574);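 further: Dose-response selectivity test against caspase-3 for candidate inhibitors of sentrin-specific proteases (SENPs)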
T1 sequence (P42574 whole entry): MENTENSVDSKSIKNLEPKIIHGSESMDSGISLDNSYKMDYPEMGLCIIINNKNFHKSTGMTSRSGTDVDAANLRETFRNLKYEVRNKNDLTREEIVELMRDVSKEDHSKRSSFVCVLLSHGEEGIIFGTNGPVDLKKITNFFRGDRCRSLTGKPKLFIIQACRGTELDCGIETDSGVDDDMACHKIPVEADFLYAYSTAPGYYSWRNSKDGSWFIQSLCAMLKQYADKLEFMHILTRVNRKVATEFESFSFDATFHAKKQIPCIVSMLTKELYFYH

[3] = target: T2, Sentrin-specific protease 7 (Homo sapiens, UniProt Q9BQF6);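 further: Luminescence-based dose-response confirmation of ultra-high-throughput screening hits, measuring inhibition of SENP7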
T2 sequence (Q9BQF6 whole entry): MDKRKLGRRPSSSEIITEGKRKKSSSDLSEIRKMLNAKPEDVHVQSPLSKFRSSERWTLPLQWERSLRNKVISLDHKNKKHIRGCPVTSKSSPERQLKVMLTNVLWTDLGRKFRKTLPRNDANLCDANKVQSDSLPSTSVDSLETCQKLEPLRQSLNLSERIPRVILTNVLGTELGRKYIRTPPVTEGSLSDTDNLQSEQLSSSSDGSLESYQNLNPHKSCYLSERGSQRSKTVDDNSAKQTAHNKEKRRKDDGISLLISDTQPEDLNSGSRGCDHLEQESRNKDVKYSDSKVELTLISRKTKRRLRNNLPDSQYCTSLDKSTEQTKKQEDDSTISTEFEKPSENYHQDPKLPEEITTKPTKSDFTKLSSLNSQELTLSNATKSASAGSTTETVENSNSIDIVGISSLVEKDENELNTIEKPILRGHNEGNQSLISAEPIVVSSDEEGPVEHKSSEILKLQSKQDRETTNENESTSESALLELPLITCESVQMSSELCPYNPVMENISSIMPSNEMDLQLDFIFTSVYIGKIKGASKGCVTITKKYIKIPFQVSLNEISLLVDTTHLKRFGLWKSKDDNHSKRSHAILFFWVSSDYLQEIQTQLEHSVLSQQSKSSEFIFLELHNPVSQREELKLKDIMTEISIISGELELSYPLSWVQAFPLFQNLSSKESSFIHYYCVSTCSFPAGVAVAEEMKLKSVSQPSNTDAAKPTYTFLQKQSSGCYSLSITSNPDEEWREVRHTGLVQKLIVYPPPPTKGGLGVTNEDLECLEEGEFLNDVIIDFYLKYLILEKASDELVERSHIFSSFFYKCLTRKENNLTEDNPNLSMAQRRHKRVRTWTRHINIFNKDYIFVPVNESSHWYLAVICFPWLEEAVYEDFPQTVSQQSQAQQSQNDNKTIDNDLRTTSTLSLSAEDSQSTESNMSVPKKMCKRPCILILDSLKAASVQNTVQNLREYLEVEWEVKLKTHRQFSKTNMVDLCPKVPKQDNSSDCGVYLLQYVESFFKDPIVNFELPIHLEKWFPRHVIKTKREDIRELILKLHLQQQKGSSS

[4] = target: T3, Sentrin-specific protease 6 (Homo sapiens, UniProt Q9GZR1);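 further: Luminescence-based dose-response confirmatory assay of SENP6 inhibition, following up an ultra-high-throughput screen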
T3 sequence (Q9GZR1 whole entry): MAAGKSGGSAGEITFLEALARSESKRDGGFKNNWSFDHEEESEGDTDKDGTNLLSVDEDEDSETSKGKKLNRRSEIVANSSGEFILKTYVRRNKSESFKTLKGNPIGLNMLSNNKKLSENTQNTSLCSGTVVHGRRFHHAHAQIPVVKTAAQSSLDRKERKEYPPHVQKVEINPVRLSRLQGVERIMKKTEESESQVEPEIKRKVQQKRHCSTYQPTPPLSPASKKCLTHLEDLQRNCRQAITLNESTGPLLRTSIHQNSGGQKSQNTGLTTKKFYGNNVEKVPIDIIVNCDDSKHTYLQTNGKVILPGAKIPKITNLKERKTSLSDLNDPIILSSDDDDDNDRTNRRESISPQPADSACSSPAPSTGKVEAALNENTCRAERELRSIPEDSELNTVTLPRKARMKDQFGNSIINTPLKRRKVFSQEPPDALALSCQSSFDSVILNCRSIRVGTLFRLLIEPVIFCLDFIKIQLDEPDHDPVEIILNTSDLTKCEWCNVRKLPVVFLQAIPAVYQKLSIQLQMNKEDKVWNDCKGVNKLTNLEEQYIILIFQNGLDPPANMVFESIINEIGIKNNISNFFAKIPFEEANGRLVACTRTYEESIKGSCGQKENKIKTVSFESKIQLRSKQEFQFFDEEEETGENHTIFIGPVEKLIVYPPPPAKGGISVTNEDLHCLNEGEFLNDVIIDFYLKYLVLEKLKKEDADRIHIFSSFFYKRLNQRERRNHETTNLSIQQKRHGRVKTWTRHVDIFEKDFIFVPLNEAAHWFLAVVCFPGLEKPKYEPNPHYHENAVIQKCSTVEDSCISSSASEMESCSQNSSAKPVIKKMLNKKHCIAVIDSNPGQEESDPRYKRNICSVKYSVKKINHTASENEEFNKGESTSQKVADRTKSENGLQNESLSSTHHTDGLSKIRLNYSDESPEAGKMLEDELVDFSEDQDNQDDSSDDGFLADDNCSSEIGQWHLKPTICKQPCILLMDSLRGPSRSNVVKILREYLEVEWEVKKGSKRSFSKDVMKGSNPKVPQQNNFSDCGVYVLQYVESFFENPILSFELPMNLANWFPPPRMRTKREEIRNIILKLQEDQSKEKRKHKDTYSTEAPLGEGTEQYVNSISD

[5] = target: T4, Sentrin-specific protease 8 (Homo sapiens, UniProt Q96LD8);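 further: luminescence read-out of SENP8 inhibition, dose-response confirmation following an ultra-high-throughput screen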
T4 sequence (Q96LD8 whole entry): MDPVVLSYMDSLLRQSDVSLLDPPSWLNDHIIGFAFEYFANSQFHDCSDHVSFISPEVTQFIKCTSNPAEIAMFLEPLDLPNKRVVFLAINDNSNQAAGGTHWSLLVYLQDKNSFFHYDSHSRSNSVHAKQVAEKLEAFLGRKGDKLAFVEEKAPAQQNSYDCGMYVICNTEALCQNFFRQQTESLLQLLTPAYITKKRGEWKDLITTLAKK

[6] = target: Benomyl/methotrexate resistance protein (Candida albicans, UniProt P28873); assay: CaMdr1 efflux pump inhibitor potency, dose response, singleplex, Cherry Pick1 hits (AID 588608)
Benomyl/methotrexate resistance protein, sequence (P28873 whole entry): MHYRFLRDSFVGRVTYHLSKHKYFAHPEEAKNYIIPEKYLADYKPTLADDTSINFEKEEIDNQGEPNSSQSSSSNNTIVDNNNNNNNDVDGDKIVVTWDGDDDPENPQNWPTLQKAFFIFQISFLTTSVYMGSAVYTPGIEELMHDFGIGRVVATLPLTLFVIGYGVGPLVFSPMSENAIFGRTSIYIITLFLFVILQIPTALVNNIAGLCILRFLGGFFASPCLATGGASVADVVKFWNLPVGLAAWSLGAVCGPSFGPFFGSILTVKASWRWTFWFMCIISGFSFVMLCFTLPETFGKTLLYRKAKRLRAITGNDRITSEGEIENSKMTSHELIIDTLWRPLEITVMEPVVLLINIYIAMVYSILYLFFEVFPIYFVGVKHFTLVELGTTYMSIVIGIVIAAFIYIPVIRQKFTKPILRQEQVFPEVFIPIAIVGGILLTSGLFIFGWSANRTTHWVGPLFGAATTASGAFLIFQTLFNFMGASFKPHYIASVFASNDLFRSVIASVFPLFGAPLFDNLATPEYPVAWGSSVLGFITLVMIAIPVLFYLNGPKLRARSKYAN

[7] = target: T5, Rac GTPase-activating protein 1 (Homo sapiens, UniProt Q9H0H5); assay: MgcRacGAP GTPase-activating activity inhibitors, confirmation, biochemical, ADP Hunter fluorescence, primary and confirmatory (AID 624330)
T5 sequence (Q9H0H5 whole entry): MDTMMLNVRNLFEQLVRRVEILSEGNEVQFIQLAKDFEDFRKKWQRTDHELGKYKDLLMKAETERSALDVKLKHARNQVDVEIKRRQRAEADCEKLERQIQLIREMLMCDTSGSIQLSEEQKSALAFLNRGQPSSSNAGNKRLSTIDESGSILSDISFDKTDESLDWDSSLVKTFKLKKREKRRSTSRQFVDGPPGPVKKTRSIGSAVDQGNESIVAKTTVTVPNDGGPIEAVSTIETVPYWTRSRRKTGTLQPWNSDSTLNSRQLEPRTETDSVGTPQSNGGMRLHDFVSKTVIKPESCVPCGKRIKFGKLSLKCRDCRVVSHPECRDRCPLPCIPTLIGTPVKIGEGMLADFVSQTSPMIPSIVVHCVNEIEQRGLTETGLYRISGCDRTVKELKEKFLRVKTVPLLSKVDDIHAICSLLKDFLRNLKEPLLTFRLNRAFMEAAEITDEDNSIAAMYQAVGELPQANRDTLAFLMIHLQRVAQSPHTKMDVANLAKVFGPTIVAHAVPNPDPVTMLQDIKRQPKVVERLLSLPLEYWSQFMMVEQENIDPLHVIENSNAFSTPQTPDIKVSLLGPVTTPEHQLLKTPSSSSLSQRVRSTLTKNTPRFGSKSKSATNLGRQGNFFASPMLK

Beta-galactosidase = Beta-galactosidase (Escherichia coli, UniProt Q8VNN2); assay: PubChem AID 485352
Beta-galactosidase, sequence (Q8VNN2 whole entry): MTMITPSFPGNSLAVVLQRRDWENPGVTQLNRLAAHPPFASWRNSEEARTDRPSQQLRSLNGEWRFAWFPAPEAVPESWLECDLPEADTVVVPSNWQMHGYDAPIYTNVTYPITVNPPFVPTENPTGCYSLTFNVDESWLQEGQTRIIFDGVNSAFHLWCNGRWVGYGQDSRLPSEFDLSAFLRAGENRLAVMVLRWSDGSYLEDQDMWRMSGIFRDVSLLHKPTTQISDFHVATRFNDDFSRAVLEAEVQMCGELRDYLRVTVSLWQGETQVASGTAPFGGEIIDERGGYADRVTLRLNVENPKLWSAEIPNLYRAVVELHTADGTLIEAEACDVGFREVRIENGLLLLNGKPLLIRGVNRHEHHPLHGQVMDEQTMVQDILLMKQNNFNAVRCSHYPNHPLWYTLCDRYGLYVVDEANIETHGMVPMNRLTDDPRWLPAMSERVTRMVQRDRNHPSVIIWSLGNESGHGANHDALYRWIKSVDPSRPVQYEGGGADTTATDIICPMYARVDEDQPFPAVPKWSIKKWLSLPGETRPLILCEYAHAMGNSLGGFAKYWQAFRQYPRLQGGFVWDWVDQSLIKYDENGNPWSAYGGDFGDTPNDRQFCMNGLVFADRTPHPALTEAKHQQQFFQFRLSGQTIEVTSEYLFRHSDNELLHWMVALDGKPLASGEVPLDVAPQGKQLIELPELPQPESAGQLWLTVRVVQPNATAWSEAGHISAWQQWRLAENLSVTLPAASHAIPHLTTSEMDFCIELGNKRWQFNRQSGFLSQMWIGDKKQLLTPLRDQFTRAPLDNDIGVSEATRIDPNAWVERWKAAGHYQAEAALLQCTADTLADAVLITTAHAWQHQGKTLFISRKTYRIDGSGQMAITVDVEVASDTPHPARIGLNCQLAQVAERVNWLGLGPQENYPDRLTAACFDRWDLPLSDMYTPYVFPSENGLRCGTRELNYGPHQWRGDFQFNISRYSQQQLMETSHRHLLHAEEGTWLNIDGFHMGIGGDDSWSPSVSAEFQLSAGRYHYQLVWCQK

[8] = target: T6, Type-1 angiotensin II receptor (Homo sapiens, UniProt P30556); assay: AT1 receptor antagonists, dose response, selectivity assay for APJ receptor antagonist project, cell-based, uHTS hits (AID 463214);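 further: antagonist potency against angiotensin II stimulated AT1 response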
T6 sequence (P30556 whole entry): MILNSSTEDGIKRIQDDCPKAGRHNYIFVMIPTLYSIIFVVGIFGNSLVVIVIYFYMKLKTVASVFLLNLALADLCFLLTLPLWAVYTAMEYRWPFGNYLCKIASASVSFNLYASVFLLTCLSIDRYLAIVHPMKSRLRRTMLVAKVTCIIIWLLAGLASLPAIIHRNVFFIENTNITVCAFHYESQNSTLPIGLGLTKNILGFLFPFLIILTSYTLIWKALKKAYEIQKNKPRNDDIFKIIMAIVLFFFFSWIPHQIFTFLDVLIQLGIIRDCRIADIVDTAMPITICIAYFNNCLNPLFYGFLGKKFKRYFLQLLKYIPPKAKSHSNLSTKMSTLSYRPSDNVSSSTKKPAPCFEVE

[9] = target: SWI/SNF-related matrix-associated actin-dependent regulator of chromatin subfamily A member 2 (Homo sapiens, UniProt P51531); assay: Luminescence-based cell-based high throughput dose response assay to identify activators of the function of SWI/SNF related, matrix associated, actin dependent regulator of chromatin, subfamily a, member 2 (SMARCA2, BRM).
SWI/SNF-related matrix-associated actin-dependent regulator of chromatin subfamily A member 2, sequence (P51531 whole entry): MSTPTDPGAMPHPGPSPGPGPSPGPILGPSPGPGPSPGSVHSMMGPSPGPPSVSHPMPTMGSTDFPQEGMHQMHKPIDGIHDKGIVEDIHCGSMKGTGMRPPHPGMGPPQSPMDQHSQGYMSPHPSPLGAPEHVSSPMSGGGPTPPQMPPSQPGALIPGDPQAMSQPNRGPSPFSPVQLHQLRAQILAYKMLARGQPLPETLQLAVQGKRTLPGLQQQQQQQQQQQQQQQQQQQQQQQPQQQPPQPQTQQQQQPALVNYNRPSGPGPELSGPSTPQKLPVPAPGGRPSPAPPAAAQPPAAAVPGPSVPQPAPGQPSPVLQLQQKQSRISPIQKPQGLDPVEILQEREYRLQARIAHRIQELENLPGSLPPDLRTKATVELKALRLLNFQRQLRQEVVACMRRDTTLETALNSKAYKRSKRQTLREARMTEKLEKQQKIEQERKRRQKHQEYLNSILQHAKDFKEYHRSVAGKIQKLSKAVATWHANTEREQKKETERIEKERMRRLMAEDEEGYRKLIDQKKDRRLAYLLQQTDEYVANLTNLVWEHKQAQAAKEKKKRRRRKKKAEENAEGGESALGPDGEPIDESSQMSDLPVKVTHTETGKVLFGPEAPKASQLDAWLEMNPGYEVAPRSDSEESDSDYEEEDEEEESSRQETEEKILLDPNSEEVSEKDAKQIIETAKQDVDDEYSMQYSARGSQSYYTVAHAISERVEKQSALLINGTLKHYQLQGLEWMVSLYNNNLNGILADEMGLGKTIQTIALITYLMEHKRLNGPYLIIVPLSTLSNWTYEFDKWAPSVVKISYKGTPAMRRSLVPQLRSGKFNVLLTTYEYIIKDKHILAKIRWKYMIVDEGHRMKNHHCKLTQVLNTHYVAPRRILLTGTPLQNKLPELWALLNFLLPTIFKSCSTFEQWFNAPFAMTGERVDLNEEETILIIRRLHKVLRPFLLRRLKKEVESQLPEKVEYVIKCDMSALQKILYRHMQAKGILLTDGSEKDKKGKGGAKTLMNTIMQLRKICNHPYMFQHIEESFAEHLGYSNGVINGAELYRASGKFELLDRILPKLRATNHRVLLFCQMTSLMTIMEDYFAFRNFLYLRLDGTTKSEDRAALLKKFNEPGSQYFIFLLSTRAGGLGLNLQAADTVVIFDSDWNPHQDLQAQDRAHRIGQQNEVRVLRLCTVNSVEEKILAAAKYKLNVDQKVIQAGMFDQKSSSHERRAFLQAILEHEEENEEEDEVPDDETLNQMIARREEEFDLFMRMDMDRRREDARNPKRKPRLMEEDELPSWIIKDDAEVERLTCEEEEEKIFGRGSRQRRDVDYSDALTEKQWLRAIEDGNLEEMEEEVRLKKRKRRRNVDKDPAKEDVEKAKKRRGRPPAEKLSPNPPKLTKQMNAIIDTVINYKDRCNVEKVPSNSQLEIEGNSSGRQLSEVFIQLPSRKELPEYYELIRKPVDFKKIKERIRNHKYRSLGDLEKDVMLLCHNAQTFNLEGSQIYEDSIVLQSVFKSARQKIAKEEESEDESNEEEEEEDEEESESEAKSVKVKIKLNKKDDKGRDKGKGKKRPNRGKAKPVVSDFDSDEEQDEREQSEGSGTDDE

[10] = Counterscreen for activators of the function of SWI/SNF related, matrix associated, actin dependent regulator of chromatin, subfamily a, member 2 (SMARCA2, BRM): Luminescence-based cell-based high throughput dose response assay to identify non-selective compounds using the VP16 reporter assay.
[11] = microbe, parasite or virus in culture; conditions: Mycobacterium tuberculosis
[12] = Luminescence Cell-Based Dose Retest to Confirm Inhibitors of Cancer Stem Cells. [Related pubchem assays (depositor defined):AID2717, AID2721]; conditions: Homo sapiens
[13] = target: T7, Polyadenylate-binding protein 1 (Homo sapiens, UniProt P11940); assay: PABP1 MLLE–PAM2 interaction inhibitors, dose response, miRNA deadenylation inhibitor project, biochemical, fluorescence polarization, Cy5-PAM2 peptide, secondary (AID 602260); conditions: read-out: IC50_Mean
T7 sequence (P11940 whole entry): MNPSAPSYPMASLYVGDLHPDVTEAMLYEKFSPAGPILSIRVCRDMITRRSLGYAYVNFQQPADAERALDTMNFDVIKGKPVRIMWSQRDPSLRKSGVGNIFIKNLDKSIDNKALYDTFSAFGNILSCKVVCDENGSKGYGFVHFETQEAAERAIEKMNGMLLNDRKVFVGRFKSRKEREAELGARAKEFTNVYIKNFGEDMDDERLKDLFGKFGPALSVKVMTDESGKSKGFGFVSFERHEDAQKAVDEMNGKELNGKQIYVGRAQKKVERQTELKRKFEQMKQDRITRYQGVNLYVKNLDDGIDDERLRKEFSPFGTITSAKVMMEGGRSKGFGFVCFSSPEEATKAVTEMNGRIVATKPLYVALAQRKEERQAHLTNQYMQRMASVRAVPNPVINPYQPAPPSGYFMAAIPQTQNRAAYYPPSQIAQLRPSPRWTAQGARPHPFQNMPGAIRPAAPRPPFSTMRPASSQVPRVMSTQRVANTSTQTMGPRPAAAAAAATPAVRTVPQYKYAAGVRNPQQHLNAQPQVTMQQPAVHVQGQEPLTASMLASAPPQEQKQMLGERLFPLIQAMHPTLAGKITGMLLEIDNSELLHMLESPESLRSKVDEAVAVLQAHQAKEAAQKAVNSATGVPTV

[14] = target: T7, Polyadenylate-binding protein 1; assay: PABP1 MLLE–PAM2 binding inhibitor potency, dose response, biochemical, fluorescence polarization, FITC-PAM2 peptide (AID 602259); conditions: read-out: IC50_Mean
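Wherever AC50 is given: cells exposed to compound for roughly 70 hours or longer before luminescence read.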

G-protein coupled receptor 55, sequence (Q9Y2T6 whole entry): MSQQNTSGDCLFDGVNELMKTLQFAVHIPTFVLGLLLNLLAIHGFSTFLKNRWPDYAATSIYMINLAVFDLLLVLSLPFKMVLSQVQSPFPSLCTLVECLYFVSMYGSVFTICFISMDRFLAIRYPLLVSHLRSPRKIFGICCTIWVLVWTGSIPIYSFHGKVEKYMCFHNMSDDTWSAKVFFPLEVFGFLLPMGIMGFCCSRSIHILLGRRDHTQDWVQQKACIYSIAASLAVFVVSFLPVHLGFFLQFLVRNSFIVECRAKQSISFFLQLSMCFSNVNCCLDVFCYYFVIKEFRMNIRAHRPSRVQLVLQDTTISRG

For `CCOC(=O)N1CCC(N(CCOC)C(=O)Nc2ccc(Cl)c(Cl)c2)CC1`, the EC50 [1] was 2.65 µM (active) and the IC50 [2] was 0.99 µM (active).
For `O=C1/C(=C/c2cccs2)Sc2ccccc21`, the IC50 (Caspase-3) was 3.44 µM (active), the IC50 [3] was 2.11 µM (active) and the IC50 [4] was 2.36 µM (active). The IC50 [5] was 2.41 µM (active).
In the case of `COCCn1c(=S)[nH]c2sc3c(c2c1=O)CCCC3`, the EC50 [6] is reported as 0.012 µM (active) and the IC50 [7] is reported as 38.7 µM (active).
In the case of `O=C(CNc1cccc(Cl)c1)c1ccc(Br)cc1`, the EC50 (Beta-galactosidase) is reported as > 40 µM (inactive), the IC50 [8] is reported as 15 µM (active) and the EC50 [9] is reported as > 91.2 µM (inactive). For the same compound, the EC50 [10] was > 91.2 µM (inactive).
With `COc1cccc(Nc2nc(-c3ccc4c(c3)OCCO4)cs2)c1` the IC50 (Caspase-3) was 40.2 µM (active), the IC50 [3] was 7.97 µM (active) and the IC50 [4] was 20.3 µM (active). For the same compound, the IC50 [5] was 30.3 µM (active).
For `Cc1csc(N=C(S)Nc2cccc(Cl)c2)n1`, the EC50 (Beta-galactosidase) was > 40 µM (inactive), the CC50 [11] was 33.1 µM (active) and the IC50 [8] was > 40 µM (not active). The AC50 [12] was 7.09 µM (active), the IC50 [13] was > 66 µM (inactive) and the IC50 [14] was > 66 µM (inactive).
